A word on the IC50: it is the point on the concentration scale where inhibition reaches its midpoint.

Data set [1] concerns the target T1, IA^k (Mus musculus, UniProt P01910+P06343).
T1 construct: soluble IA^k and IE^k monomers were expressed; class II-associated invariant-chain peptide (CLIP) 88–102 (VSQMRMATPLLMRPM) with thrombin cleavage site (cleaved yes); made in house; host or cells: baculovirus expression (sf9 cells are named only for the IA^k dextramer constructs)
Description: MHC class II-binding assay, IA^k. Set-up: species or system A/J mice. The conditions noted are these: competition with biotinylated HEL 46–61 (1 µM); empty IA^k monomers 0.35 µg; competitor 0.00001–100 µM; pH 7.0, overnight, RT; DELFIA europium fluorescence 340/615 nm; mean ± SEM, three experiments with two replicates each. As for the experimental part: A/J mice express two MHC class II alleles, IA^k and IE^k ([33], [34]), and to determine the affinities of β1AR peptides, soluble IA^k and IE^k monomers were expressed ([34], [35]). In brief, the β-chain in each of IA^k and IE^k constructs contain sequence for class II-associated invariant-chain peptide 88–102 (VSQMRMATPLLMRPM) linked with thrombin cleavage site ([34], [35]). After expressing in the baculovirus, soluble IA^k and IE^k monomers were treated with thrombin (20 U/mg; Novagen, Madison, WI, USA) to release class II-associated invariant-chain peptide leading us to obtain empty IA^k and IE^k molecules. Reaction mixtures were prepared to include empty IA^k or IE^k monomers (0.35 µg), competitor peptides (β1ARAc 171–190, β1ARAc 181–200, β1ARAc 201–220, and β1ARAc 211–230) (0.00001–100 µM), and constant amounts of the biotinylated reference peptides HEL 46–61 (for IA^k) or MCC 82–103 (for IE^k) (1 µM) in a buffer containing 50 mM sodium phosphate pH 7.0, 100 mM sodium chloride, 1 mM EDTA, and 1 × protease inhibitor (Sigma-Aldrich, St. Louis, MO, USA) ([36]–[38]). After incubating overnight at RT, the mixtures were transferred to 96-well white fluorescence plates coated with anti-IA^k (clone 10-2.16, BioXcell, West Lebanon, NH, USA), and anti-IE^k (clone M5/114, BioXcell) Abs (10 µg/ml) in 0.2 M sodium phosphate buffer, pH 6.8, blocked with 2% bovine casein; and the plates were incubated on a rocker at RT for 1 h. Finally, after adding 100 µl of europium-labeled streptavidin (0.1 µg/ml) and dissociation-enhanced lanthanide fluoroimmunoassay (DELFIA) enhancement solution (Perkin Elmer) sequentially, fluorescence intensities were measured at excitation/emission wavelengths of 340/615 nm using a Victor Multilabel Plate Reader (Perkin Elmer). The IC50 values were determined based on the concentrations of competitor peptides needed to prevent 50% binding of the reference peptides as we have described previously ([26], [28], [30]).

For data set [2], the system named is non-cardiac tissues (brain, lung, liver, kidney). The conditions noted are these: mouse, in vivo.
Data set [3] relates to rabbits, rats, and mice. The conditions noted are these: cited from earlier work. From the text:
While, an assumption made in these studies that a single epitope of β1AR can act as an immunogen in various species despite the major histocompatibility complex (MHC) alleles to be different was found valid, identification of other potential immunodominant epitopes, if any, was not explored. Lik ... || In this report, we describe identification of T cell epitopes of β1AR in A/J mice that are highly susceptible to lymphocytic myocarditis induced by various cardiac antigens namely, Myhc ([28]), cardiac troponin I ([47]), ANT ([26]), and BCKD kinase ([30]). Importance of β1AR in the cardiac disease has long been investigated in that patients with myocarditis/DCM, in particular, IDCM show β1AR-reactive antibodies.

Data set [4] has as its system T cells (lymph node cells/splenocytes from immunized animals). Description: T cell proliferation assay ([3H]-thymidine). The format is cell-based, A/J mice. The conditions noted are these: for T cell responses: fold vs medium control; for T cell responses (in words): proliferation, 0–100 µg/ml, 2 days + 16 h [3H]-thymidine, cpm. As for the experimental part:
At termination, lymph nodes (maxillary, mandibular, axillary, inguinal, and popliteal) and spleens were harvested from immunized animals to prepare single cell suspensions. Similarly, splenocytes were prepared from naive animals. After lysing the erythrocytes and washing, cell pellets were suspended in RPMI medium containing 10% fetal bovine serum, 1 mM sodium pyruvate, 4 mM L-glutamine, 1 × each of non-essential amino acids and vitamin mixture, and 100 U/ml penicillin–streptomycin (Lonza, Walkersville, MD, USA; hereafter called growth medium). In some experiments, CD4 T cells and CD8 T cells were enriched to a purity of ~95% by negative selection based on magnetic separation using IMAG (BD Biosciences, San Jose, CA, USA) ([31]). To stimulate CD4 and CD8 T cells, syngeneic naive irradiated splenocytes loaded with peptides were used as antigen-presenting cells at a ratio of 1:1. Cells were stimulated at a density of ~5 × 10^6 cells/ml in triplicates with or without the immunizing peptides (0–100 µg/ml) in growth medium. RNase 43–56 or HEL 46–61 were used as irrelevant controls. After 2 days, cells were pulsed with tritiated ^3[H]-thymidine (1 μCi/well; MP Biomedicals, Santa Ana, CA, USA), and 16 h later, proliferative responses were measured as counts per minute (cpm) using a Wallac liquid scintillation counter (Perkin Elmer, Waltham, MA, USA) ([26], [28], [30]).

In data set [5] the test system is A/J mice (hearts). Description: Induction of myocarditis by active immunization with peptides (histology). The conditions noted are these: for Myocarditis incidence / Myocarditis incidence (animals with disease/total) / Inflammatory foci: individual non-acetylated peptide, 100 µg per animal; for Myocarditis incidence / Myocarditis incidence (animals with disease/total): CFA/PT, days 0 and 7, day 21; for Inflammatory foci: mean ± SEM of myocarditic animals. The format is in vivo.

[6] abbreviates: 10 μg/ml, animals immunized with pool IV.
[7] abbreviates: 100 μg/ml, animals immunized with pool IV.
Setting [8] is: 10 μg/ml, animals immunized with pool VIII.
Setting [9] is: 100 μg/ml, animals immunized with pool VIII.
[10] abbreviates: 10 μg/ml, animals immunized with pool IX.
Where [11] appears, read: 100 μg/ml, animals immunized with pool IX.

Entries after “also recorded” stand apart in the source; their conditions may differ. Residues, ends and D or L forms follow the SMILES beside them.

T1 sequence (P01910 24-218 limits assumed): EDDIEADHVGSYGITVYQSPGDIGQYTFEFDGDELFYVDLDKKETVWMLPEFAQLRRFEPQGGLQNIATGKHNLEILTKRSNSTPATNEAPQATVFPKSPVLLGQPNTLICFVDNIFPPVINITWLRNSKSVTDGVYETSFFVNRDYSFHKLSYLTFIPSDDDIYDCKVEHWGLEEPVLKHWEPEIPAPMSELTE
T1 sequence (P06343 28-224 limits assumed): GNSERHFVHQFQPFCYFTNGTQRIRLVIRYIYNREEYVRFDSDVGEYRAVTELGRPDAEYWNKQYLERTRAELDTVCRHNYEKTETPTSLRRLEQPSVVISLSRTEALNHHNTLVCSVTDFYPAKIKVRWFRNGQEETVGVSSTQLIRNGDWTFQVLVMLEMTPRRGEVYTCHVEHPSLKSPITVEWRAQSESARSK

Take `CC[C@H](C)[C@H](NC(=O)[C@H](C)NC(=O)[C@H](Cc1ccc(O)cc1)NC(=O)[C@H](C)NC(=O)[C@H](CCCNC(=N)N)NC(=O)[C@H](CC(N)=O)NC(=O)[C@@H](NC(=O)[C@@H](NC(=O)[C@H](Cc1ccccc1)NC(=O)[C@H](CC(=O)O)NC(=O)[C@H](CS)NC(=O)[C@H](CS)NC(=O)[C@H](CCCCN)NC(=O)[C@@H]1CCCN1C(=O)[C@H](CC(=O)O)NC(=O)[C@H](CC(N)=O)NC(C)=O)C(C)C)[C@@H](C)O)C(=O)N[C@@H](C)C(=O)N[C@@H](CO)C(=O)N[C@@H](CO)C(=O)N[C@H](C(=O)O)C(C)C` [β1ARAc 211–230] (Ac-NDPKCCDFVTNRAYAIASSV-OH): the IC50 in data set [1] was found to be 18.6 ± 1.23 µM. In data set [2], the “Brain, incidence (animals affected/total)” value is listed as 0/5; the “Brain, incidence of inflammation” value was 0%; the “Brain, inflammatory foci” value amounted to 0; the “Kidney, incidence (animals affected/total)” value is on record as 0/6. Besides, in data set [2], the “Kidney, incidence of inflammation” value turned out to be 0%; the “Kidney, inflammatory foci” value is reported as 0; the “Liver, incidence (animals affected/total)” value is on record as 6/6; the “Liver, incidence of inflammation” value is listed as 100%. In addition, in data set [2], the “Liver, inflammatory foci” value stood at 20.33 ± 4.83; the “Lung, incidence (animals affected/total)” value is on record as 5/6; the “Lung, incidence of inflammation” value was 83%; the “Lung, inflammatory foci” value is 2.50 ± 1.34.
For “HWWRAESDEARRCYNDPKCCDFVTNR [β1AR 197–222]”, the “Cardiac abnormalities in Balb/c mice (in words)” value in data set [3] (Balb/c mice) was “cardiac abnormalities could be detected in Balb/c mice only at 25 weeks but not at 14 weeks postimmunization”. Further, in data set [3], the “Antibody induction in rodent species (in words)” value is reported as “shown to induce antibodies in various rodent species”. In addition, the “Cardiomyopathy on prolonged immunization (in words)” value in data set [3] (monthly/biweekly immunizations for 6–18 months) is listed as “developed cardiac dysfunctions suggestive of DCM, with minimal or no heart infiltrates; also recorded: can develop features of cardiomyopathy during the course of ~1 year with little or no myocarditis”. Moreover, in data set [3] (rats, prolonged immunization), the “Cardiomyopathic changes in rats (in words)” value is on record as “early cardiomyopathic changes at 1 year, but with no necrosis or fibrosis including changes in heart to body weight ratios”.
Take “NDPKCCDFVTNRAYAIASSV [β1AR 211-230, 20-mer of mouse β1AR peptide library]”: the T cell responses in data set [4] (setting [6]) turned out to be 3.15 fold. The compound further showed a T cell responses in data set [4] (setting [7]) of 3.27 fold. Besides, the “Disease severity (in words)” value in data set [5] (individual immunization, non-acetylated peptides) is “mild disease”. Further, in data set [5], the Myocarditis incidence was 40%, the “Myocarditis incidence (animals with disease/total)” value is given as 2/5 and the Inflammatory foci is 2.0 ± 1.0.
In data set [4] (setting [6]), “β1AR 191-210: 20-mer of mouse β1AR peptide library (FLPILMHWWRAESDEARRCY; UniProt P34971 191-210, looked up, fragment)” returned a T cell responses of 1.26 fold. In data set [4] (setting [7]), this compound displayed a T cell responses of 1.63 fold. Moreover, in data set [5], the Myocarditis incidence is on record as 0%, the “Myocarditis incidence (animals with disease/total)” value is 0/5 and the Inflammatory foci is on record as 0.
In turn, “β1AR 201-220: 20-mer of mouse β1AR peptide library (AESDEARRCYNDPKCCDFVT; UniProt P34971 201-220, looked up, fragment)” displayed a T cell responses in data set [4] (setting [6]) of 1.08 fold. This compound displayed a T cell responses in data set [4] (setting [7]) of 1.37 fold. Further, in data set [5], the Myocarditis incidence is recorded as 0%, the “Myocarditis incidence (animals with disease/total)” value is 0/5 and the Inflammatory foci was determined as 0.
In data set [4] (setting [8]), “β1AR 381-400: 20-mer of mouse β1AR peptide library (CCARRAACRRRAAHGDRPRA; UniProt P34971 381-400, looked up, fragment)” gave a T cell responses of 1.10 fold. In data set [4] (setting [9]), this compound showed a T cell responses of 1.45 fold. In addition, the “T cell responses (in words)” value in data set [4] is reported as “did not show T cell responses”. Further, in data set [5], the Myocarditis incidence is listed as 0%, the “Myocarditis incidence (animals with disease/total)” value is on record as 0/5 and the Inflammatory foci amounted to 0.
The compound “β1AR 391-410: 20-mer of mouse β1AR peptide library (RAAHGDRPRASGCLARAGPP; UniProt P34971 391-410, looked up, fragment)” returned a T cell responses in data set [4] (setting [8]) of 1.03 fold. For the same compound, the T cell responses in data set [4] (setting [9]) is recorded as 1.18 fold. Also, in data set [4], the “T cell responses (in words)” value is “did not show T cell responses”. In data set [5], the Myocarditis incidence came out at 0%, the “Myocarditis incidence (animals with disease/total)” value was 0/5 and the Inflammatory foci is 0.
On to “β1AR 401-420: 20-mer of mouse β1AR peptide library (SGCLARAGPPPSPGAPSDDD; UniProt P34971 401-420, looked up, fragment)”, for which the T cell responses in data set [4] (setting [8]) is listed as 0.90 fold; in data set [4] (setting [9]) it was 0.88 fold.
On the same counts, the results for “β1AR 411-430: 20-mer of mouse β1AR peptide library (PSPGAPSDDDDDDAGTTPPA; UniProt P34971 411-430, looked up, fragment)” are 0.93 fold and 0.94 fold.
On to “β1AR 421-440: 20-mer of mouse β1AR peptide library (DDDAGTTPPARLLEPWTGCN; UniProt P34971 421-440, looked up, fragment)”, for which the T cell responses was 1.12 fold in data set [4] (setting [10]) and 1.21 fold in data set [4] (setting [11]).
In the case of “β1AR 431-450: 20-mer of mouse β1AR peptide library (RLLEPWTGCNGGTTTVDSDS; UniProt P34971 431-450, looked up, fragment)”, the T cell responses is recorded as 1.14 fold in data set [4] (setting [10]) and 1.18 fold in data set [4] (setting [11]).
In the same order, the values of “β1AR 441-460: 20-mer of mouse β1AR peptide library (GGTTTVDSDSSLDEPGRQGF; UniProt P34971 441-460, looked up, fragment)” are 0.79 fold and 1.01 fold.
In the same order, the values of “β1AR 451-466: 16-mer of mouse β1AR peptide library (SLDEPGRQGFSSESKV; UniProt P34971 451-466, looked up, fragment)” are 0.95 fold and 1.16 fold.

The values above are taken from publication PMC5701947, “β1-Adrenergic Receptor Contains Multiple IA^k and IE^k Binding Epitopes That Induce T Cell Responses with Varying Degrees of Autoimmune Myocarditis in A/J Mice” (Frontiers in Immunology, 2017).
